Experimental data published in PubChem BioAssay (NCI).
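Briefly, cells in 96-well plates were exposed to five compound concentrations for 48 h, and endpoints were estimated by linear interpolation. GI50: concentration for 50% inhibition of growth. Definition used: TGI = concentration required for complete inhibition of growth.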

What was measured:
Assay in all cases: NCI tumour cell line growth inhibition, 48 h
MCF7 breast = test system: MCF7 breast
HL-60(TB) leukemia = test system: HL-60(TB) leukemia
A549 NSCLC = test system: A549 NSCLC
MALME-3M melanoma = test system: MALME-3M melanoma
HS 578T breast = test system: HS 578T breast
COLO 205 colon = test system: COLO 205 colon
IGROV1 ovarian = test system: IGROV1 ovarian
SK-OV-3 ovarian = test system: SK-OV-3 ovarian
SF-295 CNS = test system: SF-295 CNS
BT-549 breast = test system: BT-549 breast
HCT-15 colon = test system: HCT-15 colon
HOP-92 NSCLC = test system: HOP-92 NSCLC
ACHN renal = test system: ACHN renal
SNB-75 CNS = test system: SNB-75 CNS
KM12 colon = test system: KM12 colon
NCI-H226 lung = test system: NCI-H226 lung
786-0 renal = test system: 786-0 renal
UACC-62 melanoma = test system: UACC-62 melanoma
MDA-MB-231 breast = test system: MDA-MB-231 breast
SK-MEL-5 melanoma = test system: SK-MEL-5 melanoma
NCI-H522 lung = test system: NCI-H522 lung
MOLT-4 leukemia = test system: MOLT-4 leukemia
NCI-H460 lung = test system: NCI-H460 lung
UO-31 renal = test system: UO-31 renal
HT29 colon = test system: HT29 colon
UACC-257 melanoma = test system: UACC-257 melanoma
A498 renal = test system: A498 renal
SNB-19 CNS = test system: SNB-19 CNS
SF-268 CNS = test system: SF-268 CNS
U251 CNS = test system: U251 CNS
DU-145 prostate = test system: DU-145 prostate
SF-539 CNS = test system: SF-539 CNS
RPMI-8226 leukemia = test system: RPMI-8226 leukemia
K-562 leukemia = test system: K-562 leukemia
TK-10 renal = test system: TK-10 renal
NCI/ADR-RES ovarian = test system: NCI/ADR-RES ovarian
HCC-2998 colon = test system: HCC-2998 colon
CCRF-CEM leukemia = test system: CCRF-CEM leukemia
M14 melanoma = test system: M14 melanoma
NCI-H23 lung = test system: NCI-H23 lung
SN12C renal = test system: SN12C renal
HCT-116 colon = test system: HCT-116 colon
OVCAR-4 ovarian = test system: OVCAR-4 ovarian
HOP-62 NSCLC = test system: HOP-62 NSCLC
EKVX NSCLC = test system: EKVX NSCLC
SW-620 colon = test system: SW-620 colon
RXF 393 renal = test system: RXF 393 renal
OVCAR-3 ovarian = test system: OVCAR-3 ovarian
OVCAR-8 ovarian = test system: OVCAR-8 ovarian
T-47D breast = test system: T-47D breast
MDA-MB-435 = test system: MDA-MB-435
LOX IMVI melanoma = test system: LOX IMVI melanoma
OVCAR-5 ovarian = test system: OVCAR-5 ovarian
SK-MEL-28 melanoma = test system: SK-MEL-28 melanoma
PC-3 prostate = test system: PC-3 prostate
CAKI-1 renal = test system: CAKI-1 renal

In the case of `N#Cc1c(NC(=O)c2ccc(F)cc2)sc2c1CCCC2`, the GI50 (MCF7 breast) is reported as over 25 µM, the TGI (MCF7 breast) is reported as over 25 µM and the GI50 (HL-60(TB) leukemia) is reported as over 25 µM. The TGI (HL-60(TB) leukemia) was over 25 µM, the GI50 (A549 NSCLC) was over 25 µM and the TGI (A549 NSCLC) was over 25 µM. For the same compound, the GI50 (MALME-3M melanoma) was over 25 µM, the TGI (MALME-3M melanoma) was over 25 µM and the GI50 (HS 578T breast) was over 25 µM. It also gave a TGI (HS 578T breast) of over 25 µM, a GI50 (COLO 205 colon) of over 25 µM and a TGI (COLO 205 colon) of over 25 µM. It also gave a GI50 (IGROV1 ovarian) of over 25 µM, a TGI (IGROV1 ovarian) of over 25 µM and a GI50 (SK-OV-3 ovarian) of over 25 µM. The TGI (SK-OV-3 ovarian) was over 25 µM, the GI50 (SF-295 CNS) was over 25 µM and the TGI (SF-295 CNS) was over 25 µM. The GI50 (BT-549 breast) was over 25 µM, the TGI (BT-549 breast) was over 25 µM and the GI50 (HCT-15 colon) was over 25 µM. For the same compound, the TGI (HCT-15 colon) was over 25 µM, the GI50 (HOP-92 NSCLC) was over 25 µM and the TGI (HOP-92 NSCLC) was over 25 µM. The GI50 (ACHN renal) was over 25 µM, the TGI (ACHN renal) was over 25 µM and the GI50 (SNB-75 CNS) was over 25 µM. The TGI (SNB-75 CNS) was over 25 µM, the GI50 (KM12 colon) was over 25 µM and the TGI (KM12 colon) was over 25 µM. For the same compound, the GI50 (NCI-H226 lung) was over 25 µM, the TGI (NCI-H226 lung) was over 25 µM and the GI50 (786-0 renal) was over 25 µM. For the same compound, the TGI (786-0 renal) was over 25 µM, the GI50 (UACC-62 melanoma) was over 25 µM and the TGI (UACC-62 melanoma) was over 25 µM. For the same compound, the GI50 (MDA-MB-231 breast) was over 25 µM, the TGI (MDA-MB-231 breast) was over 25 µM and the GI50 (SK-MEL-5 melanoma) was over 25 µM. The TGI (SK-MEL-5 melanoma) was over 25 µM, the GI50 (NCI-H522 lung) was over 25 µM and the TGI (NCI-H522 lung) was over 25 µM. For the same compound, the GI50 (MOLT-4 leukemia) was over 25 µM, the TGI (MOLT-4 leukemia) was over 25 µM and the GI50 (NCI-H460 lung) was over 25 µM. The TGI (NCI-H460 lung) was over 25 µM, the GI50 (UO-31 renal) was over 25 µM and the TGI (UO-31 renal) was over 25 µM. It also gave a GI50 (HT29 colon) of over 25 µM, a TGI (HT29 colon) of over 25 µM and a GI50 (UACC-257 melanoma) of over 25 µM. The TGI (UACC-257 melanoma) was over 25 µM, the GI50 (A498 renal) was over 25 µM and the TGI (A498 renal) was over 25 µM. For the same compound, the GI50 (SNB-19 CNS) was over 25 µM, the TGI (SNB-19 CNS) was over 25 µM and the GI50 (SF-268 CNS) was over 25 µM. It also gave a TGI (SF-268 CNS) of over 25 µM, a GI50 (U251 CNS) of over 25 µM and a TGI (U251 CNS) of over 25 µM. It also gave a GI50 (DU-145 prostate) of over 25 µM, a TGI (DU-145 prostate) of over 25 µM and a GI50 (SF-539 CNS) of over 25 µM. It also gave a TGI (SF-539 CNS) of over 25 µM, a GI50 (RPMI-8226 leukemia) of over 25 µM and a TGI (RPMI-8226 leukemia) of over 25 µM. It also gave a GI50 (K-562 leukemia) of over 25 µM, a TGI (K-562 leukemia) of over 25 µM and a GI50 (TK-10 renal) of over 25 µM. The TGI (TK-10 renal) was over 25 µM, the GI50 (NCI/ADR-RES ovarian) was over 25 µM and the TGI (NCI/ADR-RES ovarian) was over 25 µM. For the same compound, the GI50 (HCC-2998 colon) was over 25 µM, the TGI (HCC-2998 colon) was over 25 µM and the GI50 (CCRF-CEM leukemia) was over 25 µM. For the same compound, the TGI (CCRF-CEM leukemia) was over 25 µM, the GI50 (M14 melanoma) was over 25 µM and the TGI (M14 melanoma) was over 25 µM. For the same compound, the GI50 (NCI-H23 lung) was over 25 µM, the TGI (NCI-H23 lung) was over 25 µM and the GI50 (SN12C renal) was over 25 µM. The TGI (SN12C renal) was over 25 µM, the GI50 (HCT-116 colon) was over 25 µM and the TGI (HCT-116 colon) was over 25 µM. It also gave a GI50 (OVCAR-4 ovarian) of over 25 µM, a TGI (OVCAR-4 ovarian) of over 25 µM and a GI50 (HOP-62 NSCLC) of over 25 µM. The TGI (HOP-62 NSCLC) was over 25 µM, the GI50 (EKVX NSCLC) was over 25 µM and the TGI (EKVX NSCLC) was over 25 µM. The GI50 (SW-620 colon) was over 25 µM, the TGI (SW-620 colon) was over 25 µM and the GI50 (RXF 393 renal) was over 25 µM. For the same compound, the TGI (RXF 393 renal) was over 25 µM, the GI50 (OVCAR-3 ovarian) was over 25 µM and the TGI (OVCAR-3 ovarian) was over 25 µM. The GI50 (OVCAR-8 ovarian) was over 25 µM, the TGI (OVCAR-8 ovarian) was over 25 µM and the GI50 (T-47D breast) was over 25 µM. It also gave a TGI (T-47D breast) of over 25 µM, a GI50 (MDA-MB-435) of over 25 µM and a TGI (MDA-MB-435) of over 25 µM. The GI50 (LOX IMVI melanoma) was over 25 µM, the TGI (LOX IMVI melanoma) was over 25 µM and the GI50 (OVCAR-5 ovarian) was over 25 µM. The TGI (OVCAR-5 ovarian) was over 25 µM, the GI50 (SK-MEL-28 melanoma) was over 25 µM and the TGI (SK-MEL-28 melanoma) was over 25 µM. The GI50 (PC-3 prostate) was over 25 µM, the TGI (PC-3 prostate) was over 25 µM and the GI50 (CAKI-1 renal) was over 25 µM. The TGI (CAKI-1 renal) was over 25 µM.
